What was measured:
Format in all cases: toxicity, cell-based
HEK-293T = experiment: Incucyte cell viability with HEK293T; conditions: human, 10 µM, compound concentration 10 uM
Fibroblast = experiment: Incucyte cell viability with human fibroblast; conditions: 10 µM, compound concentration 10 uM
U2OS = experiment: Incucyte cell viability with U2OS; conditions: human, 10 µM, compound concentration 10 uM
Further: unitless GR value; below 1 slowed growth and below 0 cell loss.

SMILES	Growth Rate (HEK-293T; 6 h, replicate number 1)	Growth Rate (HEK-293T; 6 h, replicate number 2)	Growth Rate (HEK-293T; 12 h, replicate number 1)	Growth Rate (HEK-293T; 12 h, replicate number 2)	Growth Rate (HEK-293T; 18 h, replicate number 1)	Growth Rate (HEK-293T; 18 h, replicate number 2)	Growth Rate (HEK-293T; 24 h, replicate number 2)	Growth Rate (Fibroblast; 0 h, replicate number 1)	Growth Rate (Fibroblast; 0 h, replicate number 2)	Growth Rate (U2OS; 12 h, replicate number 1)	Growth Rate (U2OS; 18 h, replicate number 1)	Growth Rate (U2OS; 24 h, replicate number 2)	Growth Rate (HEK-293T; 24 h, replicate number 1)	Growth Rate (Fibroblast; 6 h, replicate number 1)	Growth Rate (Fibroblast; 6 h, replicate number 2)	Growth Rate (Fibroblast; 12 h, replicate number 1)	Growth Rate (Fibroblast; 12 h, replicate number 2)	Growth Rate (Fibroblast; 18 h, replicate number 2)	Growth Rate (Fibroblast; 24 h, replicate number 2)	Growth Rate (U2OS; 24 h, replicate number 1)	also measured
COc1cc2ncnc(Nc3cccc(O)c3)c2cc1OC	0.14	0.13	0.56	0.71	0.96	0.75	0.77	-1	0.07	0.83	0.88	0.84									Growth Rate (U2OS; 0 h, replicate number 1): -0.82; Growth Rate (U2OS; 6 h, replicate number 1): 0.98; Growth Rate (U2OS; 6 h, replicate number 2): 0.55; Growth Rate (U2OS; 12 h, replicate number 2): 0.75; Growth Rate (U2OS; 18 h, replicate number 2): 0.69
Nc1ncnc2c1c(COc1cccc(Cl)c1)nn2C1CCOCC1	0.75	0.59		0.61	0.83	0.5	0.37		-0.61	0.63	0.81		0.79	0.82	0.47	0.9	0.6	0.74	0.92	0.83	Growth Rate (U2OS; 6 h, replicate number 1): 0.51
CNc1nc(Nc2ccc(C(=O)N3CCOCC3)cc2OC)ncc1Cl	0.75	0.81			0.99	0.96	0.96	-0.99					0.92		0.67		0.72	0.63	0.99		Growth Rate (U2OS; 6 h, replicate number 1): -0.99
COC[C@@H](C)N[C@H]1CC[C@H](Nc2cc(-c3cccc(NCC4(C#N)CCOCC4)n3)c(Cl)cn2)CC1	-0.07		0.2	0.18	0.22	0.24	0.35		-1	0.88	0.59	0.68	0.27	0.06	-0.13	-0.08	-0.06	-0.22	-0.12	0.79	Growth Rate (Fibroblast; 18 h, replicate number 1): -0.12; Growth Rate (Fibroblast; 24 h, replicate number 1): -0.09; Growth Rate (U2OS; 0 h, replicate number 2): 0.56; Growth Rate (U2OS; 6 h, replicate number 1): 0.79; Growth Rate (U2OS; 6 h, replicate number 2): 0.56; Growth Rate (U2OS; 12 h, replicate number 2): 0.62; Growth Rate (U2OS; 18 h, replicate number 2): 0.71
C=CC(=O)Nc1cccc(C(=O)Nc2ccc(Nc3cc(-c4c(-c5ccc(F)cc5)nc(SC)n4C)ccn3)cc2)c1	0.54	0.39	0.55	0.34	0.47	0.46		-0.95	0.71			0.97	0.57								
NC(=O)c1ccc(-c2nc(-c3ccc4c(c3)OCCO4)c(-c3ccccn3)[nH]2)cc1	0.37	0.65	0.76	0.81	0.8	0.74	0.86	-1	-0.85	0.58	0.55	0.75	0.79		0.41	0.77	0.45	0.63	0.74	0.5	Growth Rate (U2OS; 6 h, replicate number 1): 0.21; Growth Rate (U2OS; 12 h, replicate number 2): 0.94; Growth Rate (U2OS; 18 h, replicate number 2): 0.86
CC[C@H](CO)Nc1nc(Nc2cccc(-c3ccccn3)c2)c2ncn(C(C)C)c2n1.Cl.O	-0.37	-0.77	-0.07	-0.31	0.07	-0.09	0	-0.64		0.96	0.92		0.16	0.1	0.21	0.05	0.28	0.45	0.49	0.76	Growth Rate (Fibroblast; 18 h, replicate number 1): 0.33; Growth Rate (Fibroblast; 24 h, replicate number 1): 0.45; Growth Rate (U2OS; 0 h, replicate number 1): -0.98
Fc1ccc(-c2nc(-c3ccc4ccccc4c3F)[nH]c2-c2ccncc2)cc1	0.81	0.42	0.77	0.57	0.7	0.41	0.47					0.94	0.67	0.58	-0.01	0.47	0.65	0.8			Growth Rate (Fibroblast; 18 h, replicate number 1): 0.61; Growth Rate (Fibroblast; 24 h, replicate number 1): 0.76; Growth Rate (U2OS; 0 h, replicate number 1): -1
Cc1ccc2c(N)c(C(=O)NC3CCc4cc(N5CC6CCC(C5)N6)ccc4C3)sc2n1.O=CO (stereo unspecified)	-0.55	-0.64	-0.47	-0.55	-0.39	-0.46	-0.37			0.47	0.35	0.08	-0.32	0.09	-0.1	0.09	-0.17	-0.26	-0.21	0.24	Growth Rate (Fibroblast; 18 h, replicate number 1): 0.05; Growth Rate (Fibroblast; 24 h, replicate number 1): 0.01; Growth Rate (U2OS; 0 h, replicate number 2): 0.59; Growth Rate (U2OS; 6 h, replicate number 2): 0.37; Growth Rate (U2OS; 12 h, replicate number 2): 0.12; Growth Rate (U2OS; 18 h, replicate number 2): 0.15
CCN1CCN(Cc2ccc(C(=O)Nc3ccc(C)c(Oc4ccc5c(c4)CC(=O)N5)c3)cc2C(F)(F)F)CC1.Cl.Cl	-0.56	-0.1	-0.3	0.11	-0.23	0.15	0.14		0.42	0.23	0.37	-0.01	-0.13	0.34	0.36	-0.1	-0.08	-0.3	-0.31	0.51	Growth Rate (Fibroblast; 18 h, replicate number 1): -0.33; Growth Rate (Fibroblast; 24 h, replicate number 1): -0.38; Growth Rate (U2OS; 0 h, replicate number 2): -0.46; Growth Rate (U2OS; 6 h, replicate number 2): -0.37; Growth Rate (U2OS; 12 h, replicate number 2): -0.14; Growth Rate (U2OS; 18 h, replicate number 2): -0.02

Source: ChEMBL document CHEMBL5303304, “EUbOPEN Chemogenomics Library - IncuCyte” (2023)
